Residue numbers refer to the chain shown, from its start. Where a SMILES comes first, the peptide text is derived from it. Bridges are numbered along the chain shown (N, C = ends).
Legend:
Experiment in all cases: IP1 accumulation
Type in all cases: cell-based
Details in all cases: mean ± S.E.M.; for Emax: IP1 maximal response, SEM
hCTR D373A = biological target: T1, hCTR D373A (Homo sapiens, UniProt P30988, D373A)
T1 construct: c-Myc (N); expressed in transfected cells
T1 sequence (P30988 25-474 D373A): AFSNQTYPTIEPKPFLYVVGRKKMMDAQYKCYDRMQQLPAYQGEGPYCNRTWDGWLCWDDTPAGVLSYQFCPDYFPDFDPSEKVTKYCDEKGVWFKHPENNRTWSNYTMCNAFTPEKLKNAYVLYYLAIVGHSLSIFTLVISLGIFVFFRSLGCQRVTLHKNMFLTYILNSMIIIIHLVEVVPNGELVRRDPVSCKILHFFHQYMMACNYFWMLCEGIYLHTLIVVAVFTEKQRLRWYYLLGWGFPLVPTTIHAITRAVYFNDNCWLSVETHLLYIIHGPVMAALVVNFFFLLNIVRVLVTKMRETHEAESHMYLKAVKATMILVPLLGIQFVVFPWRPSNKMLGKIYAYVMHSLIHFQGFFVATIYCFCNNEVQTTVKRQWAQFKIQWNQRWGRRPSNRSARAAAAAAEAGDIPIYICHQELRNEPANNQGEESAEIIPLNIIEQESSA
Experimental: (§1) Cells (2.5 × 10^4 cells/well) were plated into 96 well trays and cultured overnight. Cells were stimulated with increasing concentration of ligands for 60 min in the presence of LiCl. Samples were lysed and endogenous IP1 was measured using an IP-One HTRF® assay kit (CisBio) as specified by the manufacturer. Data were normalized to the maximal response elicited by 100 μM of ATP.
(§2) Data were corrected for radioligand occupancy using the Cheng-Prusoff equation in Prism; as such data are reported as pKi. Emax and EC50 were estimated from concentration-response curves using with a 3-parameter logistic equation in Prism (v7). These values are a composite of functional affinity, efficacy and stimulus response coupling. […] Significance was accepted at P < 0.05.

hCTR G369A = biological target: T2, hCTR G369A (Homo sapiens, UniProt P30988, G369A)
T2 construct: c-Myc (N); expressed in transfected cells
T2 sequence (P30988 25-474 G369A): T1 sequence (P30988 25-474 D373A) with G345A, A349D
Experimental: as §1, §2

hCTR L291A = biological target: T3, hCTR L291A (Homo sapiens, UniProt P30988, L291A)
T3 construct: expressed in transfected cells
T3 sequence (P30988 25-474 L291A): T1 sequence (P30988 25-474 D373A) with L267A, A349D
Experimental: as §1, §2

hCTR M376A = biological target: T4, hCTR M376A (Homo sapiens, UniProt P30988, M376A)
T4 construct: c-Myc (N); expressed in transfected cells
T4 sequence (P30988 25-474 M376A): T1 sequence (P30988 25-474 D373A) with A349D, M352A
Experimental: as §1, §2

hCTR T295A = biological target: T5, hCTR T295A (Homo sapiens, UniProt P30988, T295A)
T5 construct: c-Myc (N); expressed in transfected cells
T5 sequence (P30988 25-474 T295A): T1 sequence (P30988 25-474 D373A) with T271A, A349D
Experimental: as §1, §2

[1] = IP1, CV1-FlpIn cells, 60 min, LiCl

| SMILES | Emax (hCTR D373A) [%] | Emax (hCTR G369A) [%] | Emax (hCTR L291A) [%] | Emax (hCTR M376A) [%] | Emax (hCTR T295A) [%] | EC50 (hCTR D373A; [1]) [nM] | EC50 (hCTR G369A; [1]) [nM] | EC50 (hCTR L291A; [1]) [nM] | EC50 (hCTR M376A; [1]) [nM] | EC50 (hCTR T295A; [1]) [nM] |
| --- | --- | --- | --- | --- | --- | --- | --- | --- | --- | --- |
| CC[C@H](C)[C@H](NC(=O)[C@H](C)NC(=O)[C@@H](NC(=O)[C@H](CCC(N)=O)NC(=O)[C@@H]1CCCN1C(=O)[C@H](Cc1ccccc1)NC(=O)[C@@H](NC(=O)[C@H](Cc1c[nH]cn1)NC(=O)[C@H](Cc1ccccc1)NC(=O)[C@H](CCCCN)NC(=O)[C@H](CC(N)=O)NC(=O)[C@H](Cc1ccccc1)NC(=O)[C@H](CC(=O)O)NC(=O)[C@H](CCC(N)=O)NC(=O)[C@@H](NC(=O)[C@H](Cc1ccc(O)cc1)NC(=O)[C@@H](NC(=O)CNC(=O)[C@H](CC(C)C)NC(=O)[C@H](CCSC)NC(=O)[C@@H]1CSSC[C@H](N)C(=O)NCC(=O)N[C@@H](CC(N)=O)C(=O)N[C@@H](CC(C)C)C(=O)N[C@@H](CO)C(=O)N[C@@H]([C@@H](C)O)C(=O)N1)[C@@H](C)O)[C@@H](C)O)[C@@H](C)O)[C@@H](C)O)C(=O)NCC(=O)N[C@H](C(=O)NCC(=O)N[C@@H](C)C(=O)N1CCC[C@H]1C(N)=O)C(C)C [hCT] | 102 ± 10 | 148 ± 10 | 71 ± 16 | 52 ± 5 | 43 ± 4 | – | – | – | – | – |
| CC(C)C[C@H](NC(=O)[C@H](CCCCN)NC(=O)CNC(=O)[C@H](CC(C)C)NC(=O)[C@@H](NC(=O)[C@@H]1CSSC[C@H](N)C(=O)N[C@@H](CO)C(=O)N[C@@H](CC(N)=O)C(=O)N[C@@H](CC(C)C)C(=O)N[C@@H](CO)C(=O)N[C@@H]([C@@H](C)O)C(=O)N1)C(C)C)C(=O)N[C@@H](CO)C(=O)N[C@@H](CCC(N)=O)C(=O)N[C@@H](CCC(=O)O)C(=O)N[C@@H](CC(C)C)C(=O)N[C@@H](Cc1c[nH]cn1)C(=O)N[C@@H](CCCCN)C(=O)N[C@@H](CC(C)C)C(=O)N[C@@H](CCC(N)=O)C(=O)N[C@H](C(=O)N[C@@H](Cc1ccc(O)cc1)C(=O)N1CCC[C@H]1C(=O)N[C@@H](CCCNC(=N)N)C(=O)N[C@H](C(=O)N[C@@H](CC(N)=O)C(=O)N[C@H](C(=O)NCC(=O)N[C@@H](CO)C(=O)NCC(=O)N[C@H](C(=O)N1CCC[C@H]1C(N)=O)[C@@H](C)O)[C@@H](C)O)[C@@H](C)O)[C@@H](C)O [sCT] | 78 ± 6 | 97 ± 7 | 85 ± 4 | 95 ± 4 | 53 ± 7 | – | – | – | – | – |
| CSCC[C@H](NC(=O)CNC(=O)[C@H](CO)NC(=O)[C@H](Cc1ccccc1)NC(=O)[C@H](CCCNC(=N)N)NC(=O)[C@H](Cc1c[nH]cn1)NC(=O)[C@H](Cc1ccccc1)NC(=O)[C@H](CC(N)=O)NC(=O)[C@H](CC(N)=O)NC(=O)[C@H](CC(C)C)NC(=O)[C@H](CC(N)=O)NC(=O)[C@H](CCCNC(=N)N)NC(=O)[C@H](Cc1c[nH]c2ccccc12)NC(=O)[C@H](Cc1ccc(O)cc1)NC(=O)[C@H](C)NC(=O)[C@H](CO)NC(=O)[C@H](CC(C)C)NC(=O)[C@@H](NC(=O)[C@@H]1CSSC[C@H](N)C(=O)N[C@@H](CO)C(=O)N[C@@H](CC(N)=O)C(=O)N[C@@H](CC(C)C)C(=O)N[C@@H](CO)C(=O)N[C@@H]([C@@H](C)O)C(=O)N1)C(C)C)C(=O)NCC(=O)N[C@@H](Cc1ccccc1)C(=O)NCC(=O)N1CCC[C@H]1C(=O)N[C@@H](CCC(=O)O)C(=O)N[C@H](C(=O)N1CCC[C@H]1C(N)=O)[C@@H](C)O [pCT] (H-CSNLSTCVLSAYWRNLNNFHRFSGMGFGPETP-NH2; disulfide 1-7) | 46 ± 3 | 110 ± 6 | 67 ± 6 | 47 ± 4 | 56 ± 7 | 14.8 | 7.59 | 1.62 | 5.62 | 4.57 |

Source: publication PMC5908784, “Extracellular loops 2 and 3 of the calcitonin receptor selectively modify agonist binding and efficacy” (Biochemical Pharmacology, 2018)
